Source: article PMC4466200 (Bioorganic & Medicinal Chemistry Letters, 2015)

What was measured:
[1] = tested on: MERS-CoV (strain EMC/2012)
[2] = tested on: HSV-2; settings: CD4+ T cells; McGuigan's ProTide technology employed; cited from earlier work
[3] = tested on: SARS-CoV (strain Frankfurt-1); type: cell-based
[4] = tested on: HIV-1; settings: CD4+ T cells; McGuigan's ProTide technology employed; cited from earlier work
[5] = tested on: SARS-CoV or MERS-CoV; settings: cited from earlier work
[6] = tested on: other viruses; settings: needed to inhibit other viruses; cited from earlier work
[7] = tested on: coronavirus; settings: coronavirus replication in vitro; cited from earlier work
[8] = in vitro; settings: human

Nc1nc2c(ncn2COCCO)c(=O)[nH]1 [Acyclovir, acyclovir]
block of virus replication (in words) [1]: had no effect
concentration suppressing replication [2]: 3 to 12 µmol/L
block of virus replication (in words) [3]: had no effect
concentration suppressing replication [4]: 3 to 12 µmol/L
activity against SARS-CoV or MERS-CoV in vitro (in words) [5]: none of these well known antiviral drugs exhibited any activity

NC(=O)c1ncn([C@@H]2O[C@H](CO)[C@@H](O)[C@H]2O)n1 [Ribavirin, ribavirin]
inhibitory concentration [6]: 50 to 100 µg/mL
inhibitory concentration [7]: 500 to 5000 µg/mL

COc1nc(N)ncc1-c1cn(COCCO)cn1 [compound 2]
block of virus replication (in words) [1]: can block the replication of MERS-CoV
selectivity ratio [8]: > 3
EC50 [3]: No effect
block of virus replication (in words) [3]: but not SARS-CoV

Nc1nc(O)c2ncn(COC(CO)CO)c2n1 [ganciclovir]
activity against SARS-CoV or MERS-CoV in vitro (in words) [5]: none of these well known antiviral drugs exhibited any activity

Nc1ccn([C@@H]2CS[C@H](CO)O2)c(=O)n1 [lamivudine]
activity against SARS-CoV or MERS-CoV in vitro (in words) [5]: none of these well known antiviral drugs exhibited any activity

Cc1cn([C@H]2C[C@H](N=[N+]=[N-])[C@@H](CO)O2)c(=O)[nH]c1=O [zidovudine]
activity against SARS-CoV or MERS-CoV in vitro (in words) [5]: none of these well known antiviral drugs exhibited any activity
